Reference: the NIST ThermoML archive (doi:10.1016/j.fluid.2005.05.012)

Test: xn = mol fraction of the nth substance listed
Conditions: 101.33 kPa, Liquid

CN1CCNCC1 [N-methylpiperazine] + CCCO
Conditions | mass density, 293.15 K [kg/m3] | mass density, 298.15 K [kg/m3] | mass density, 303.15 K [kg/m3] | viscosity, 293.15 K [mPa·s] | viscosity, 298.15 K [mPa·s] | viscosity, 303.15 K [mPa·s]
x2 = 0 | 903.79 | 899.8 | 894.54 | 2.1 | 1.841 | 1.624
x2 = 0.1017 | 899.72 | 895.76 | 890.62 | 2.24 | 1.962 | 1.716
x2 = 0.1987 | 895.17 | 891.23 | 886.21 | 2.369 | 2.058 | 1.809
x2 = 0.3 | 889.62 | 885.71 | 880.86 | 2.536 | 2.2 | 1.932
x2 = 0.4007 | 883.15 | 879.31 | 874.64 | 2.689 | 2.326 | 2.035
x2 = 0.4998 | 875.68 | 871.91 | 867.4 | 2.817 | 2.438 | 2.129
x2 = 0.5504 | 871.35 | 867.6 | 863.18 | 2.863 | 2.478 | 2.167
x2 = 0.6011 | 866.59 | 862.85 | 858.5 | 2.895 | 2.506 | 2.192
x2 = 0.6542 | 861.09 | 857.34 | 853.04 | 2.885 | 2.504 | 2.193
x2 = 0.7001 | 855.83 | 852.05 | 847.8 | 2.874 | 2.497 | 2.186
x2 = 0.7495 | 849.57 | 845.75 | 841.53 | 2.833 | 2.473 | 2.175
x2 = 0.7991 | 842.55 | 838.67 | 834.47 | 2.752 | 2.413 | 2.124
x2 = 0.902 | 825.1 | 821.08 | 816.93 | 2.54 | 2.23 | 1.98

CN1CCNCC1 [N-methylpiperazine] + CCO
Conditions | mass density, 293.15 K [kg/m3] | mass density, 298.15 K [kg/m3] | mass density, 303.15 K [kg/m3] | viscosity, 293.15 K [mPa·s] | viscosity, 298.15 K [mPa·s] | viscosity, 303.15 K [mPa·s]
x2 = 0 | 903.79 | 899.8 | 894.54 | 2.1 | 1.841 | 1.624
x2 = 0.1002 | 900.18 | 896.19 | 891.01 | 2.141 | 1.87 | 1.65
x2 = 0.1994 | 896.41 | 892.42 | 887.31 | 2.206 | 1.924 | 1.694
x2 = 0.3003 | 891.73 | 887.75 | 882.73 | 2.27 | 1.977 | 1.741
x2 = 0.3493 | 889.02 | 885.06 | 880.09 | 2.285 | 1.992 | 1.753
x2 = 0.4021 | 885.73 | 881.8 | 876.89 | 2.301 | 2.009 | 1.771
x2 = 0.451 | 882.31 | 878.41 | 873.55 | 2.288 | 2.001 | 1.764
x2 = 0.5004 | 878.44 | 874.56 | 869.77 | 2.267 | 1.977 | 1.746
x2 = 0.5994 | 869.22 | 865.36 | 860.68 | 2.175 | 1.909 | 1.698
x2 = 0.7011 | 857.04 | 853.14 | 848.58 | 1.996 | 1.772 | 1.595
x2 = 0.8003 | 841.28 | 837.28 | 832.81 | 1.779 | 1.591 | 1.429
x2 = 0.8982 | 820.12 | 815.97 | 811.57 | 1.526 | 1.366 | 1.239

CN1CCNCC1 [N-methylpiperazine] + CO
Conditions | mass density, 293.15 K [kg/m3] | mass density, 298.15 K [kg/m3] | mass density, 303.15 K [kg/m3] | viscosity, 293.15 K [mPa·s] | viscosity, 298.15 K [mPa·s] | viscosity, 303.15 K [mPa·s]
x2 = 0 | 903.8 | 899.8 | 894.52 | 2.1 | 1.841 | 1.624
x2 = 0.1021 | 902.85 | 899.04 | 893.84 | 2.103 | 1.849 | 1.643
x2 = 0.1999 | 901.87 | 898.08 | 892.86 | 2.147 | 1.897 | 1.692
x2 = 0.3286 | 899.35 | 895.54 | 890.39 | 2.167 | 1.924 | 1.722
x2 = 0.4143 | 896.64 | 892.82 | 887.8 | 2.141 | 1.897 | 1.676
x2 = 0.4991 | 892.94 | 889.13 | 884.25 | 2.04 | 1.8 | 1.61
x2 = 0.6016 | 886.48 | 882.68 | 877.91 | 1.875 | 1.654 | 1.475
x2 = 0.6999 | 876.84 | 873 | 868.21 | 1.62 | 1.447 | 1.299
x2 = 0.7998 | 860.91 | 856.96 | 851.99 | 1.306 | 1.169 | 1.06
x2 = 0.8999 | 834.46 | 830.26 | 825.04 | 0.935 | 0.854 | 0.788

CCCCO [butan-1-ol] + CN1CCNCC1
x1 = 1
Conditions | mass density [kg/m3] | viscosity [mPa·s]
293.15 K | 809.97 | 2.938
298.15 K | 806.15 | 2.572
303.15 K | 802.14 | 2.271

CCO [ethanol] + CN1CCNCC1
x1 = 1
Conditions | mass density [kg/m3] | viscosity [mPa·s]
293.15 K | 789.32 | 1.17
298.15 K | 785.06 | 1.078
303.15 K | 780.68 | 0.982

CO [methanol] + CN1CCNCC1
x1 = 1
Conditions | mass density [kg/m3] | viscosity [mPa·s]
293.15 K | 791.09 | 0.593
298.15 K | 786.48 | 0.551
303.15 K | 781.22 | 0.509
